Laboratory results from ChEMBL document CHEMBL1201862, “PubChem BioAssay data set” (2004).
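Assay format: 96-well plates, 48-hour exposure. Abbreviation: GI50, concentration required for 50% inhibition of growth.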 Activity calls are given as the source filed them. Cut-off read from the data, not from the text of the source: active = GI50 up to about 1.1 µM and inactive = higher.

Experiments:
Assay in all cases: NCI-60 cell line screen, 48 h
[1] = system: OVCAR-4
[2] = system: Malme-3M
[3] = system: LOX IMVI
[4] = system: HOP-62
[5] = system: A549
[6] = system: SK-OV-3
[7] = system: COLO 205
[8] = system: ACHN
[9] = system: M14
[10] = system: NCI-H23
[11] = system: SF-295
[12] = system: UACC-62
[13] = system: HOP-92
[14] = system: NCI/ADR-RES
[15] = system: MDA-MB-231
[16] = system: SR
[17] = system: SW-620
[18] = system: SK-MEL-28
[19] = system: SNB-19
[20] = system: NCI-H522

| Structure (SMILES) | GI50 [1] | GI50 [2] | GI50 [3] | GI50 [4] | GI50 [5] | GI50 [6] | GI50 [7] | GI50 [8] | GI50 [9] | GI50 [10] | GI50 [11] | GI50 [12] | GI50 [13] | GI50 [14] | GI50 [15] | GI50 [16] | GI50 [17] | GI50 [18] | GI50 [19] | GI50 [20] |
| --- | --- | --- | --- | --- | --- | --- | --- | --- | --- | --- | --- | --- | --- | --- | --- | --- | --- | --- | --- | --- |
| OCc1ccc2c(c1)CC1(C2)Cc2cc3c(cc2C1)CCC3 | 17.4 µM (inactive) | 4.71 µM (inactive) | 3.66 µM (inactive) | 4.7 µM (inactive) | 8.47 µM (inactive) | 11.4 µM (inactive) | 2.51 µM (inactive) | 5.31 µM (inactive) | 3.27 µM (inactive) | 4.3 µM (inactive) | 3.39 µM (inactive) | 6.53 µM (inactive) | 8.99 µM (inactive) | 2.9 µM (inactive) | 1.34 µM (inactive) | 1.14 µM (inactive) | 1.77 µM (inactive) | 8.3 µM (inactive) | 4.89 µM (inactive) | 3.52 µM (inactive) |
| COC(=O)c1ccc(C)cc1CC1Cc2ccc(C)cc2C1=O (stereo not given) | 16.1 µM (inactive) | 5.24 µM (inactive) | 5.25 µM (inactive) | 22 µM (inactive) | 11 µM (inactive) | 9.08 µM (inactive) | 4.54 µM (inactive) | 22 µM (inactive) | 5.7 µM (inactive) | 15.7 µM (inactive) | 10.7 µM (inactive) | 9.53 µM (inactive) | 23 µM (inactive) | 2.59 µM (inactive) | 14.9 µM (inactive) | 3.05 µM (inactive) | 4.17 µM (inactive) | 8.43 µM (inactive) | 6.24 µM (inactive) | 1.47 µM (inactive) |
| COc1cccc(N(CN2C(=O)CCC2C(=O)O)C(C)=O)c1 (stereo not given) | > 100 µM (inactive) | > 100 µM (inactive) | > 100 µM (inactive) | > 100 µM (inactive) | > 100 µM (inactive) | > 100 µM (inactive) | > 100 µM (inactive) | > 100 µM (inactive) | > 100 µM (inactive) | > 100 µM (inactive) | > 100 µM (inactive) | > 100 µM (inactive) | > 100 µM (inactive) | > 100 µM (inactive) | > 100 µM (inactive) | > 100 µM (inactive) | > 100 µM (inactive) | > 100 µM (inactive) | > 100 µM (inactive) | > 100 µM (inactive) |
| COI1NC(=O)c2ccccc21 | > 100 µM (inactive) | > 100 µM (inactive) | > 100 µM (inactive) | > 100 µM (inactive) | > 100 µM (inactive) | > 100 µM (inactive) | > 100 µM (inactive) | > 100 µM (inactive) | > 100 µM (inactive) | > 100 µM (inactive) | > 100 µM (inactive) | > 100 µM (inactive) | > 100 µM (inactive) | > 100 µM (inactive) | > 100 µM (inactive) | > 100 µM (inactive) | > 100 µM (inactive) | > 100 µM (inactive) | > 100 µM (inactive) | 74 µM (inactive) |
| O=c1oc2ccc(Cl)cc2cc1-c1cn2ccsc2n1 | 33.4 µM (inactive) | > 100 µM (inactive) | 43.2 µM (inactive) | 46.8 µM (inactive) | 38.4 µM (inactive) | 83.6 µM (inactive) | 36.1 µM (inactive) | 60.5 µM (inactive) | 57.7 µM (inactive) | 51.9 µM (inactive) | 29.2 µM (inactive) | 34.3 µM (inactive) | 12.4 µM (inactive) | 61.1 µM (inactive) | 24.6 µM (inactive) | 24.8 µM (inactive) | 59.7 µM (inactive) | > 100 µM (inactive) | 51.9 µM (inactive) | 21 µM (inactive) |
| CCOc1c2c(cc3c1C(=O)c1c(OC)cccc1C3=O)C=C(OC)CC2 | > 25 µM (inactive) | 13.6 µM (inactive) | 16.8 µM (inactive) | > 25 µM (inactive) | 13.5 µM (inactive) | > 25 µM (inactive) | 21.6 µM (inactive) | > 25 µM (inactive) | 18.8 µM (inactive) | > 25 µM (inactive) | 10.7 µM (inactive) | 10.3 µM (inactive) | > 25 µM (inactive) | 23.2 µM (inactive) | > 25 µM (inactive) | 7.45 µM (inactive) | 9.98 µM (inactive) | > 25 µM (inactive) | > 25 µM (inactive) | 10.4 µM (inactive) |
| COC(=O)C1(CCC(C)=O)CCCCCC1=O (stereo not given) | > 100 µM (inactive) | > 100 µM (inactive) | > 100 µM (inactive) | > 100 µM (inactive) | > 100 µM (inactive) | > 100 µM (inactive) | > 100 µM (inactive) | > 100 µM (inactive) | > 100 µM (inactive) | > 100 µM (inactive) | > 100 µM (inactive) | > 100 µM (inactive) | > 100 µM (inactive) | > 100 µM (inactive) | > 100 µM (inactive) | > 100 µM (inactive) | > 100 µM (inactive) | > 100 µM (inactive) | > 100 µM (inactive) | > 100 µM (inactive) |
| OC1c2ccccc2[C@@H]2[C@H]1[C@@H](c1ccccc1)C1(Cc3ccccc3C1O)[C@H]2c1ccccc1 (stereo not given in full) | 4.04 µM (inactive) | 5.53 µM (inactive) | 2.49 µM (inactive) | 10.7 µM (inactive) | 3.86 µM (inactive) | 10.9 µM (inactive) | 1.84 µM (inactive) | 6.37 µM (inactive) | 4.75 µM (inactive) | 6.4 µM (inactive) | 6.75 µM (inactive) | 6.14 µM (inactive) | 3.35 µM (inactive) | 5.36 µM (inactive) | 5.22 µM (inactive) | 1.11 µM (active) | 5.01 µM (inactive) | 9.55 µM (inactive) | 13.6 µM (inactive) | 3.03 µM (inactive) |
| CCOC(=O)/C(C#N)=C/c1ccc(SCc2ccco2)c([N+](=O)[O-])c1 | > 100 µM (inactive) | > 100 µM (inactive) | > 100 µM (inactive) | > 100 µM (inactive) | > 100 µM (inactive) | > 100 µM (inactive) | > 100 µM (inactive) | > 100 µM (inactive) | > 100 µM (inactive) | > 100 µM (inactive) | > 100 µM (inactive) | 57 µM (inactive) | > 100 µM (inactive) | > 100 µM (inactive) | > 100 µM (inactive) | > 100 µM (inactive) | > 100 µM (inactive) | > 100 µM (inactive) | > 100 µM (inactive) | > 100 µM (inactive) |
| N#Cc1c(N)nc2c3c1NC(=O)C(C(N)=O)C3c1ccccc1O2 (stereo not given) | 95.5 µM (inactive) | > 100 µM (inactive) | > 100 µM (inactive) | 60.8 µM (inactive) | > 100 µM (inactive) | > 100 µM (inactive) | > 100 µM (inactive) | > 100 µM (inactive) | > 100 µM (inactive) | 71.8 µM (inactive) | 32.1 µM (inactive) | 27.5 µM (inactive) | 12.9 µM (inactive) | > 100 µM (inactive) | 28.6 µM (inactive) | 62.5 µM (inactive) | > 100 µM (inactive) | > 100 µM (inactive) | 47.9 µM (inactive) | 22.1 µM (inactive) |
| Cc1cc(O)c(C=O)c2c1C(=O)Oc1c(CO)c(O)c3c(c1O2)C(O)OC3=O (stereo not given) [SLAZINIC ACID] | 27.5 µM (inactive) | 41 µM (inactive) | 82.2 µM (inactive) | > 100 µM (inactive) | > 100 µM (inactive) | 64 µM (inactive) | > 100 µM (inactive) | 40.1 µM (inactive) | 61.4 µM (inactive) | > 100 µM (inactive) | > 100 µM (inactive) | 59 µM (inactive) | 50.6 µM (inactive) | 44.7 µM (inactive) | > 100 µM (inactive) | 22.6 µM (inactive) | 60 µM (inactive) | 91.8 µM (inactive) | 21.4 µM (inactive) | 42.3 µM (inactive) |
